According to patent US12606551B2, “Salt of tetrahydroisoquinoline derivative, preparation method therefor, and medical use thereof” (ZHEJIANG HISUN PHARMACEUTICAL CO., LTD., priority 2020, dated 2026):
In brackets after ≈: the same amount, converted by molar mass.

How the values were obtained:
Solubility test = assay type: physicochemical
Description: According to the conventional method for solubility assay, the solubility of the compounds of the present invention in the following four different systems was tested: phosphate salt buffer PBS (pH7.4), methanol, 0.1% HCl and water.

human AT2R = target: T1, human AT2R (Homo sapiens, UniProt P50052); test: Antagonistic activity against human AT2R ligand binding (Tag-lite HTRF); conditions: Tb-labeled-AT2R cells, red agonist fluorescent ligand, 1 hour at 25° C.
T1 construct: Tb (terbium) label on the receptor; expressed in transfected cells
T1 sequence (P50052 1-363): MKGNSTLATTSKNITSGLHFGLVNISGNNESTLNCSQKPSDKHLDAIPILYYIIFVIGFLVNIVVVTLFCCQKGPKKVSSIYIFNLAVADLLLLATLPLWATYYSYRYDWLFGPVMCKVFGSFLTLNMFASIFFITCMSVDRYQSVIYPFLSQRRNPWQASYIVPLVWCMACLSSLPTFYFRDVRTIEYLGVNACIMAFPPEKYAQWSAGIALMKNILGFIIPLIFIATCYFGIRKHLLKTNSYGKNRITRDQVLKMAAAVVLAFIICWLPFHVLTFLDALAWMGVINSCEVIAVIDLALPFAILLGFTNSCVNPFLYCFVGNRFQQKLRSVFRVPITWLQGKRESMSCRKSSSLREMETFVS
Description: Test Example 1 Test of the antagonistic activity of the compounds of the present invention against human AT2R ligand binding.
Angiotensin II Type-2 receptor (ATR) is involved in neuronal differentiation and regeneration, cell proliferation and angiogenesis, and maintenance of bone mass. ATR inhibitors can be used for treating pain and abnormal neuroregenerative diseases, inhibiting the proliferation of tumor cells and increasing bone mass. In the following methods, the degree of antagonism of the compounds of the present invention against AT2R was studied through AT2 ligand binding assay.
According to standard methods, test compounds (compound 1m and compounds 1-4) were respectively dissolved in dimethyl sulfoxide to be prepared into stock solutions of 10 mM.
(2) The test compound was subjected to 5-fold dilution with a total of 10 concentration gradients;
(3) The diluted compound in step (2) was transferred to a working plate (3657, Corning) at 160 nL/well, 200 g at room temperature for 1 minute; […]
(11) The reaction plate was centrifuged at 200 g for 1 minute at room temperature, then kept still at room temperature 25° C. for 1 hour, and centrifuged at 200 g for 1 minute at room temperature. Data were collected using Envision HTRF microplate reader, and IC50 was calculated using nonlinear fitting formula.

[1] = Pharmacokinetic assay in SD rats; assay type: in vivo; conditions: PO 60 mg/kg; for AUC(0-inf) / Cmax / half-life / MRT: both sexes, Sprague-Dawley, rat, plasma; for AUC(0-inf): read-out: Area under the curve AUC0-∞; for Cmax: read-out: Blood concentration Cmax; for half-life: read-out: Half life T½ (converted); for MRT: read-out: Residence time MRT
Description: SD rats were taken as the test animals, and the compounds of the present invention were administrated to the rats by intravenous injection or gavage. Then the drug concentrations in the plasma at different times were measured using LC/MS/MS method to study the pharmacokinetic characteristics of the compounds of the present invention in rats.
Six healthy adult Sprague Dawley (SD) male rats were purchased from Vital River Laboratory Animal Technology Co., Ltd.
76.32 mg of compound 1m was weighed and dissolved in 12.72 mL of 0.5% sodium carboxymethyl cellulose (CMC-Na), the mixture was mixed by vortex for 1 minute until the compound was completely suspended, and the final prepared concentration was 6 mg/mL;
76.61 mg of compound 1 was weighed and dissolved in 12.768 mL of 0.5% sodium carboxymethyl cellulose (CMC-Na), the mixture was mixed by vortex for 1 minute until the compound was completely suspended, and the final prepared concentration was 6 mg/mL.
Compounds 2 to 4 were weighed and dissolved in an appropriate amount of 0.5% sodium carboxymethyl cellulose (CMC-Na), the mixture was mixed by vortex for 1 minute until the compound was completely suspended, and the final prepared concentration was 6 mg/mL.
Six healthy adult SD rats, half male and half female, were divided into 2 groups, 3 rats in each group. The rats were fasted overnight, and then intragastrically administered (po) with the compound 1m or compounds 1 to 4 of the present invention at a dose of 60 mg/kg.
About 0.25 mL of blood was collected from the jugular vein before the administration and 0.25 hours, 0.5 hours, 1 hour, 2 hours, 4 hours, 6 hours, 8 hours and 24 hours after the administration, and heparin sodium was used for anticoagulation. The blood samples were placed on ice after collection, and then centrifuged to separate the plasma (centrifugation conditions: 7000 rpm, 5 minutes). The collected plasma was stored below −70° C. until analysis.
300 μL of methanol (comprising internal standard working solution, Loratadine 800 ng/mL) was added to 100 μL of plasma sample, then the mixture was mixed by vortex for 5 minutes, then the obtained mixture was centrifuged at 10,000 rpm for 10 minutes, and 1 μL of the resulting mixture was taken and subjected to LC-MS/MS analysis.

[2] = methanol, organic solvent or mixture

Structure (SMILES)	solubility (Solubility test; aqueous buffer, PBS (pH 7.4))	solubility (Solubility test; [2])	solubility (Solubility test; water)	IC50 (human AT2R)	Increase of area under the curve compared with compound 1m ([1]; versus free acid compound 1m)	Increase of plasma concentration compared with compound 1m ([1]; versus free acid compound 1m)	AUC(0-inf) [1]	Cmax [1]	half-life [1]	MRT [1]
COc1ccc(COc2c(OC)ccc3c2C[C@@H](C(=O)[O-])N(c2nc4ccc(F)cc4o2)C3)nc1.[Na+] [Compound 1]	8690 µg/mL	> 10000 µg/mL	6410 µg/mL	6 nM	14 times	more than 50 times	328 ± 53.2 µg·h/mL	127 ± 12.7 µg/mL	214 ± 51 min	2.59 ± 0.41 h
COc1ccc(COc2c(OC)ccc3c2C[C@@H](C(=O)O)N(c2nc4ccc(F)cc4o2)C3)nc1 [Compound 1m]	150 µg/mL (≈ 313 µM)	340 µg/mL (≈ 709 µM)	30 µg/mL (≈ 62.6 µM)	–	–	–	22.2 ± 9.1 µg·h/mL	2.4 ± 0.53 µg/mL	224 ± 75 min	6.13 ± 1.13 h
